Assay results reported in ChEMBL document CHEMBL1201862, “PubChem BioAssay data set” (2004).
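In this assay, cells in 96-well plates receive the compound at five concentrations for 48 hours. Endpoints are linearly interpolated between the surrounding concentrations. Here, GI50 denotes the concentration required for 50% inhibition of growth.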 Activity calls are given as the source filed them. Rule as the data show it: active = GI50 up to about 1.1 µM and inactive = higher. Where a SMILES comes first, the peptide text is derived from it. [ ]: non-standard residue; d: D form. The star is where a group is joined. ξ: configuration not given here. NMeF = CN[C@@H](Cc1ccccc1)C(=O)O; NMeV = CN[C@H](C(=O)O)C(C)C; ξNMeN = CNC(CC(N)=O)C(=O)O; NMeA = CN[C@@H](C)C(=O)O; ξNMeV = CNC(C(=O)O)C(C)C; Boc = CC(C)(C)OC(=O)*

How the values were obtained:
Test in all cases: NCI-60 cell line screen, 48 h
HT-29 = system: HT-29
EKVX = system: EKVX
SK-OV-3 = system: SK-OV-3
RXF 393 = system: RXF 393
HCT-116 = system: HCT-116
MDA-MB-231 = system: MDA-MB-231
Hs-578T = system: Hs-578T
LOX IMVI = system: LOX IMVI
RPMI-8226 = system: RPMI-8226
UACC-62 = system: UACC-62
NCI-H522 = system: NCI-H522
HOP-92 = system: HOP-92
HCT-15 = system: HCT-15
NCI-H226 = system: NCI-H226
OVCAR-3 = system: OVCAR-3
SN12C = system: SN12C
K562 = system: K562
OVCAR-5 = system: OVCAR-5
KM12 = system: KM12
BT-549 = system: BT-549

Row | Compound | GI50 (HT-29) | GI50 (EKVX) | GI50 (SK-OV-3) | GI50 (RXF 393) | GI50 (HCT-116) | GI50 (MDA-MB-231) | GI50 (Hs-578T) | GI50 (LOX IMVI) | GI50 (RPMI-8226) | GI50 (UACC-62) | GI50 (NCI-H522) | GI50 (HOP-92) | GI50 (HCT-15) | GI50 (NCI-H226) | GI50 (OVCAR-3) | GI50 (SN12C) | GI50 (K562) | GI50 (OVCAR-5) | GI50 (KM12) | GI50 (BT-549)
1 | O=C1c2ccccc2C(=O)c2sc(Nc3cc(Cl)ccc3Cl)nc21 | 14.1 µM (inactive) | 12.9 µM (inactive) | 16 µM (inactive) | 14.3 µM (inactive) | 3.3 µM (inactive) | 1.87 µM (inactive) | 9.25 µM (inactive) | 2.28 µM (inactive) | 3.22 µM (inactive) | 2.49 µM (inactive) | 2.95 µM (inactive) | 15.1 µM (inactive) | 2.94 µM | 17.6 µM (inactive) | 0.74 µM (active) | 2.08 µM (inactive) | 2.99 µM (inactive) | 20.9 µM (inactive) | 12.2 µM (inactive) | 
2 | CC1CCCc2c(-c3ccc(Cl)cc3)nc(N)c(C#N)c21 (centres undefined) | 30.6 µM (inactive) | 18.5 µM (inactive) | 23.9 µM (inactive) | 27.2 µM (inactive) | 22.3 µM (inactive) | > 100 µM (inactive) | 28.3 µM (inactive) | 24.2 µM (inactive) | 13.5 µM (inactive) | 18.9 µM (inactive) |  |  | 31 µM | 18.4 µM (inactive) | 29.5 µM (inactive) | 41.4 µM (inactive) | 24 µM (inactive) | 43 µM (inactive) | 20.2 µM (inactive) | 20.2 µM (inactive)
3 | Cc1nc2ccc(Cl)cc2c(Cl)c1CCCl | 27.2 µM (inactive) | 51.3 µM (inactive) | > 100 µM (inactive) | > 100 µM (inactive) | 25.4 µM (inactive) | 83.6 µM (inactive) | 38.1 µM (inactive) | 43.6 µM (inactive) | 35.2 µM (inactive) | 28.1 µM (inactive) | 39.3 µM (inactive) | 33.5 µM (inactive) | 43.1 µM | 43.6 µM (inactive) | 48 µM (inactive) | 39.5 µM (inactive) | 9.86 µM (inactive) | 38.5 µM (inactive) | 30.8 µM (inactive) | 
4 | OC1(c2ccc(Cl)cc2)C(N2CCCC2)c2ccccc2C2=NCCN21 (centres undefined) | 7.13 µM (inactive) | 26 µM (inactive) | 20.9 µM (inactive) | 29.1 µM (inactive) | 10.9 µM (inactive) | 24.3 µM (inactive) | 29.9 µM (inactive) | 18.1 µM (inactive) | 13 µM (inactive) | 16.6 µM (inactive) |  | 12.6 µM (inactive) | 21.4 µM |  | 37.2 µM (inactive) | 30.7 µM (inactive) | 13.6 µM (inactive) | 43.7 µM (inactive) | 20.1 µM (inactive) | 27 µM (inactive)
5 | CN(C)CCCNC1=C(Cl)C(=O)c2c(O)ccc(O)c2C1=O | 2.17 µM (inactive) | 3.37 µM (inactive) | > 10 µM (inactive) |  | 2.26 µM (inactive) | 2.9 µM (inactive) | 1.28 µM (inactive) | 1.67 µM (inactive) |  | 1.59 µM (inactive) |  | 8.2 µM (inactive) | 1.8 µM | > 10 µM (inactive) | 2.24 µM (inactive) | 1.81 µM (inactive) | 3.61 µM (inactive) | 1.59 µM (inactive) | 2.99 µM (inactive) | 1.6 µM (inactive)
6 | CC12CCC(CC(=O)/C1=C(/Br)I)C2(C)C (centres undefined) | 11.4 µM (inactive) | 19.5 µM (inactive) | 20.7 µM (inactive) | 4.6 µM (inactive) | 12.4 µM (inactive) | 5.57 µM (inactive) | 18.7 µM (inactive) | 0.0789 µM (active) | 6.25 µM (inactive) | 14.5 µM (inactive) |  | 17.3 µM (inactive) | 10.9 µM | 13.8 µM (inactive) | 13.6 µM (inactive) | 15.8 µM (inactive) | 11.2 µM (inactive) | 2.02 µM (inactive) | 17.9 µM (inactive) | 
7 | CCC(=O)Nc1ccc(N2C(=O)/C(=C/c3ccc(O)c(OC)c3)N=C2c2ccccc2)cc1 | 33.7 µM (inactive) | 17.8 µM (inactive) | 31 µM (inactive) | 10.9 µM (inactive) | 34.4 µM (inactive) |  | 61.1 µM (inactive) | 36.7 µM (inactive) | 6.82 µM (inactive) | 26.4 µM (inactive) | 37.6 µM (inactive) | 46.5 µM (inactive) | 21.3 µM | 19.5 µM (inactive) | 28.3 µM (inactive) | 54.5 µM (inactive) | 18.5 µM (inactive) | 40.8 µM (inactive) | 33.7 µM (inactive) | 20.4 µM (inactive)
8 | C/C(=N/NC(=O)c1ccccc1Nc1ccccc1C(=O)N/N=C(\C)c1ccc(C)cc1)c1ccc(C)cc1 | > 100 µM (inactive) | > 100 µM (inactive) | > 100 µM (inactive) | 12.2 µM (inactive) | 53.3 µM (inactive) | 79.1 µM (inactive) | > 100 µM (inactive) |  | > 100 µM (inactive) | 31.8 µM (inactive) |  | > 100 µM (inactive) | 55 µM | > 100 µM (inactive) | 4.62 µM (inactive) | > 100 µM (inactive) | 57.4 µM (inactive) | > 100 µM (inactive) | 74.8 µM (inactive) | > 100 µM (inactive)
9 | O=[N+]([O-])c1ccccc1S(=O)(=O)N1CCCc2cc(Cl)ccc21 | 9.35 µM (inactive) | 77.4 µM (inactive) | 26.9 µM (inactive) | 13.8 µM (inactive) | 16.2 µM (inactive) | > 56.5 µM (inactive) | 50.8 µM (inactive) | 24.3 µM (inactive) | 9.02 µM (inactive) | 23.9 µM (inactive) |  | 21.5 µM (inactive) | 15.5 µM | > 100 µM (inactive) | 26.2 µM (inactive) | 82.4 µM (inactive) | 3.46 µM (inactive) | > 93.1 µM (inactive) | 18.5 µM (inactive) | 8.91 µM (inactive)
10 | COC(=O)[C@H](C)N(C)C(=O)C(CC(N)=O)N(C)C(=O)[C@H](Cc1ccccc1)N(C)C(=O)[C@@H]1CCCN1C(=O)[C@H](C(C)C)N(C)C(=O)C(C(C)C)N(C)C(=O)[C@@H](NC(=O)OC(C)(C)C)C(C)C (some centres undefined) (Boc-V[ξNMeV][NMeV]P[NMeF][ξNMeN][NMeA]-OMe) | > 50 µM (inactive) | > 50 µM (inactive) | > 50 µM (inactive) | 37.6 µM (inactive) | > 50 µM (inactive) | > 50 µM (inactive) |  | > 50 µM (inactive) | > 5 µM (inactive) | > 50 µM (inactive) | > 50 µM (inactive) | 29 µM (inactive) | > 75 µM | > 50 µM (inactive) | > 50 µM (inactive) | > 50 µM (inactive) | > 50 µM (inactive) | > 50 µM (inactive) | 16.4 µM (inactive) | > 50 µM (inactive)
11 | NC(=S)N1N=C(c2ccc3c(c2)CCC3)CC1c1ccccc1 (centres undefined) | 16.4 µM (inactive) | 5.08 µM (inactive) | 28.6 µM (inactive) | 2.88 µM (inactive) | 22 µM (inactive) |  | 6.12 µM (inactive) | 31.5 µM (inactive) | 13.6 µM (inactive) | 17.6 µM (inactive) | 6.27 µM (inactive) | 23.4 µM (inactive) | 13.8 µM | 34.2 µM (inactive) | 17.4 µM (inactive) | 24.7 µM (inactive) | 13.1 µM (inactive) | 32.2 µM (inactive) | 11.4 µM (inactive) | 22.5 µM (inactive)
12 | O=C(NC/C(Cl)=C/Cl)Nc1cccc2c1CCCC2 | 38.5 µM (inactive) | 82.8 µM (inactive) | > 100 µM (inactive) | > 100 µM (inactive) | > 100 µM (inactive) | > 100 µM (inactive) | > 100 µM (inactive) | > 100 µM (inactive) | 49.8 µM (inactive) | > 100 µM (inactive) | > 100 µM (inactive) | 55.7 µM (inactive) | > 100 µM | > 100 µM (inactive) | > 100 µM (inactive) | > 100 µM (inactive) |  | > 100 µM (inactive) | > 100 µM (inactive) | 
13 | O=C1OCC(O)=C1C(c1ccc(Cl)cc1)c1cc2c(cc1O)OCO2 (centres undefined) | > 100 µM (inactive) | > 100 µM (inactive) | > 100 µM (inactive) | > 100 µM (inactive) | > 100 µM (inactive) | > 100 µM (inactive) | > 100 µM (inactive) | > 100 µM (inactive) |  | > 100 µM (inactive) |  | > 100 µM (inactive) | > 100 µM | > 100 µM (inactive) | > 100 µM (inactive) | > 100 µM (inactive) | > 100 µM (inactive) | > 100 µM (inactive) | > 100 µM (inactive) | > 100 µM (inactive)
14 | N#CC(c1ccccc1)N(CCCCCCN(C(=O)c1ccccc1)C(C#N)c1ccccc1)C(=O)c1ccccc1 (centres undefined) | 21.8 µM (inactive) | 50.4 µM (inactive) | 41.4 µM (inactive) | 52.1 µM (inactive) | 25.1 µM (inactive) | 47.6 µM (inactive) | 26.1 µM (inactive) | 29.3 µM (inactive) |  | 26.3 µM (inactive) |  | 16.5 µM (inactive) | 31.3 µM | 28.6 µM (inactive) | 39 µM (inactive) | 44.9 µM (inactive) | 35.2 µM (inactive) | > 100 µM (inactive) | 38.5 µM (inactive) | 31.1 µM (inactive)
15 | CCCC(=O)NC(NC1CCCCC1)(C(=O)OCC)C(F)(F)F (centres undefined) | > 100 µM (inactive) | > 100 µM (inactive) | > 100 µM (inactive) | > 100 µM (inactive) | > 100 µM (inactive) |  | > 100 µM (inactive) | > 100 µM (inactive) | > 100 µM (inactive) |  | > 100 µM (inactive) | > 100 µM (inactive) | > 100 µM | > 100 µM (inactive) | > 100 µM (inactive) | > 100 µM (inactive) | > 100 µM (inactive) | > 100 µM (inactive) | > 100 µM (inactive) | 
